18 compounds from patent US8158628B2, “Sulfonylated 1,2,3,4-tetrahydropyrrolo[1,2-a]pyrazine compounds and their use as pharmaceuticals” (Gruenenthal GmbH, priority 2009, dated 2012) can be followed below.

In one experiment the target is T1, human B1R (Homo sapiens, UniProt P46663).
T1 construct: expressed in transfected cells; host or cells: CHO K1 cells (Chinese hamster ovary), stably transfected
T1 sequence (P46663 1-353): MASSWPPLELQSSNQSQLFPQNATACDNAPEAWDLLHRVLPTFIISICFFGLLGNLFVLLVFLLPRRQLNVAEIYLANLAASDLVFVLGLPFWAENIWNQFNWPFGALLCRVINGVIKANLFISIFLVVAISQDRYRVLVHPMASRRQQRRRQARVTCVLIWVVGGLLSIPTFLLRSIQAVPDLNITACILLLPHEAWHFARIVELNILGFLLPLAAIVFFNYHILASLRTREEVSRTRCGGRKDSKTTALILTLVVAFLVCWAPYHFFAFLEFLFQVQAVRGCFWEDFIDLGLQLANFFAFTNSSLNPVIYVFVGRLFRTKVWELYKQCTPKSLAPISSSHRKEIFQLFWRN
Nature of the experiment: FLIPR Ca2+ functional assay, B1R antagonism, human B1R in CHO K1 cells. In kind it is cell-based. Conditions: test substance 10 μM; hB1R CHO K1 cells; agonist Lys-Des-Arg9 bradykinin at EC80; % of maximum achievable inhibition. Summed up:
(§1)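 Stably transfected CHO K1 cells loaded with Fluo-4; Ca2+ fluorescence read on FLIPR (ex 488/em 540 nm). Compound preincubated 10-20 min, then agonist at EC80: Lys-Des-Arg9 bradykinin (human) or Des-Arg9 bradykinin (rat). % inhibition vs maximal inhibition; IC50 from concentration series, n=2-3, N>=2.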

Another experiment has as its target T2, B1R of the rat (Rattus norvegicus, UniProt P97583).
T2 construct: expressed in transfected cells; host or cells: CHO K1 cells (Chinese hamster ovary), stably transfected
T2 sequence (P97583 1-337): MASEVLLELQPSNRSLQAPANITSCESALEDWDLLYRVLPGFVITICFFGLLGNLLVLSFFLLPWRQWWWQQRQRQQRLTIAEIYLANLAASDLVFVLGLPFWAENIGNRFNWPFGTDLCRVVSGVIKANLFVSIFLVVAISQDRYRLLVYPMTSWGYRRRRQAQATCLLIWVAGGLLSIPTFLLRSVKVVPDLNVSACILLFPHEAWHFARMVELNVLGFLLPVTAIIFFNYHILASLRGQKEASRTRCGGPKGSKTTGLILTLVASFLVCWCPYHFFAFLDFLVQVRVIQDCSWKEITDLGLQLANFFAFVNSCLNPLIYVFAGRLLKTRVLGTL
Put plainly: FLIPR Ca2+ functional assay, B1R antagonism, rat B1R in CHO K1 cells. In kind it is cell-based. Conditions: test substance 10 μM; rB1R CHO K1 cells; agonist Des-Arg9 bradykinin at EC80; % of maximum achievable inhibition. Summed up: as §1

Structures are written as SMILES.

As for `COc1ccc2cc(S(=O)(=O)N3CCn4cccc4C3CC(=O)NC3CCCc4cc(CN5CCCc6ccccc65)ccc43)ccc2c1` (stereo not drawn) [Example 130, 2-[2-[(6-Methoxy-naphthalen-2-yl)sulfonyl]-1,2,3,4-tetrahydro-pyrrolo[1,2-a]pyrazin-1-yl]-N-[6-(1,2,3,4-tetrahydro-quinolin-1-yl-methyl)-1,2,3,4-tetrahydro-naphthalen-1-yl]-acetamide], the inhibition at 10 µM on human B1R came to 73.6%; at B1R of the rat, 98.8%.
For `CCC(C)NCc1ccc2c(c1)CCC(NC(=O)CC1c3cccn3CCN1S(=O)(=O)c1ccc3cc(OC)ccc3c1)C2` (stereo not drawn) [Example 121, 2-[2-[(6-Methoxy-naphthalen-2-yl)sulfonyl]-1,2,3,4-tetrahydro-pyrrolo[1,2-a]pyrazin-1-yl]-N-[6-[(1-methyl-propylamino)-methyl]-1,2,3,4-tetrahydro-naphthalen-2-yl]-acetamide], the inhibition at 10 µM at human B1R is 99.9%; at B1R of the rat, 99.5%.
In the same order, the values of `COc1cc(C)c(S(=O)(=O)N2CCn3cccc3C2CC(=O)N2CCC3(CCN(C4CC4)C3)C2)c(C)c1` (stereo not drawn) [Example 3, 1-(7-Cyclopropyl-2,7-diazaspiro[4.4]nonan-2-yl)-2-(2-(4-methoxy-2,6-dimethylphenylsulfonyl)-1,2,3,4-tetrahydropyrrolo[1,2-a]pyrazin-1-yl)ethanone] are 69.6% and 58.8%.
Consider `COc1ccc2cc(S(=O)(=O)N3CCn4cccc4C3CC(=O)NC3CCc4cc(CN5CCCCC5)ccc4C3)ccc2c1` (stereo not drawn) [Example 8, 2-(2-(6-Methoxynaphthalen-2-ylsulfonyl)-1,2,3,4-tetrahydropyrrolo[1,2-a]pyrazin-1-yl)-N-(6-(piperidin-1-ylmethyl)-1,2,3,4-tetrahydronaphthalen-2-yl)acetamide], for which the inhibition at 10 µM on human B1R turned out to be 99.9%; on B1R of the rat, 104%.
For `Cc1ccc(S(=O)(=O)N2CCn3cccc3C2CC(=O)NC2CCCc3cc(CN4CCOCC4)ccc32)cc1Cl` (stereo not drawn) [Example 57, 2-[2-[(3-Chloro-4-methyl-phenyl)sulfonyl]-1,2,3,4-tetrahydro-pyrrolo[1,2-a]pyrazin-1-yl]-N-[6-(morpholin-4-yl-methyl)-1,2,3,4-tetrahydro-naphthalen-1-yl]-acetamide], the inhibition at 10 µM at human B1R was 98.5%; on B1R of the rat, 101%.
In the same order, the values of `CNCc1ccc2c(c1)CCC(NC(=O)CC1c3cccn3CCN1S(=O)(=O)c1ccc(C)c(Cl)c1)C2` (stereo not drawn) [Example 138, 2-[2-[(3-Chloro-4-methyl-phenyl)sulfonyl]-1,2,3,4-tetrahydro-pyrrolo[1,2-a]pyrazin-1-yl]-N-[6-(methylamino-methyl)-1,2,3,4-tetrahydro-naphthalen-2-yl]-acetamide] are 99.8% and 103%.
As to `O=C(CC1c2cccn2CCN1S(=O)(=O)c1cccc(C(F)(F)F)c1)NC1CCCc2cc(CN3C4CCCC3CC4)ccc21` (stereo not drawn) [Example 109, N-[6-(8-Azabicyclo[3.2.1]octan-8-yl-methyl)-1,2,3,4-tetrahydro-naphthalen-1-yl]-2-[2-[[3-(trifluoromethyl)phenyl]sulfonyl]-1,2,3,4-tetrahydro-pyrrolo[1,2-a]pyrazin-1-yl]-acetamide], the inhibition at 10 µM at human B1R and on B1R of the rat was 99.8% throughout.
For `COc1ccc2cc(S(=O)(=O)N3CCn4cccc4C3CC(=O)NC3CCCc4cc(CN(C)C(C)(C)C)ccc43)ccc2c1` (stereo not drawn) [Example 104, N-[6-[(tert-Butyl-methyl-amino)-methyl]-1,2,3,4-tetrahydro-naphthalen-1-yl]-2-[2-[(6-methoxy-naphthalen-2-yl)sulfonyl]-1,2,3,4-tetrahydro-pyrrolo[1,2-a]pyrazin-1-yl]-acetamide], the inhibition at 10 µM was 99.9% on human B1R and 103% on B1R of the rat.
In the same order, the values of `Cc1ccc(S(=O)(=O)N2CCn3cccc3C2CC(=O)NC2CCCc3cc(CN(C)C(C)(C)C)ccc32)cc1` (stereo not drawn) [Example 74, N-[6-[(tert-Butyl-methyl-amino)-methyl]-1,2,3,4-tetrahydro-naphthalen-1-yl]-2-[2-(p-tolylsulfonyl)-1,2,3,4-tetrahydro-pyrrolo[1,2-a]pyrazin-1-yl]-acetamide] are 99.7% and 91.2%.
In the case of `CNCc1ccc2c(c1)CCC(NC(=O)CC1c3cccn3CCN1S(=O)(=O)c1cccc(C(F)(F)F)c1)C2` (stereo not drawn) [Example 139, N-[6-(Methylamino-methyl)-1,2,3,4-tetrahydro-naphthalen-2-yl]-2-[2-[[3-(trifluoromethyl)phenyl]sulfonyl]-1,2,3,4-tetrahydro-pyrrolo[1,2-a]pyrazin-1-yl]-acetamide], the figures for the inhibition at 10 µM at human B1R and at B1R of the rat were 99.1% and 103%, respectively.
`Cc1ccc(S(=O)(=O)N2CCn3cccc3C2CC(=O)NC2CCCc3cc(CN4C5CCCC4CC5)ccc32)cc1` (stereo not drawn) [Example 108, N-[6-(8-Azabicyclo[3.2.1]octan-8-yl-methyl)-1,2,3,4-tetrahydro-naphthalen-1-yl]-2-[2-(p-tolylsulfonyl)-1,2,3,4-tetrahydro-pyrrolo[1,2-a]pyrazin-1-yl]-acetamide]: the inhibition at 10 µM on human B1R turned out to be 99.9%; on B1R of the rat, 101%.
With `COc1cc(C)c(S(=O)(=O)N2CCn3cccc3C2COCC(=O)NC2CCN(c3ccc(C(F)(F)F)cn3)C2)c(C)c1` (stereo not drawn) [Example 33, 2-[[2-[(4-Methoxy-2,6-dimethyl-phenyl)sulfonyl]-1,2,3,4-tetrahydro-pyrrolo[1,2-a]pyrazin-1-yl]-methoxy]-N-[1-[5-(trifluoromethyl)-pyridin-2-yl]-pyrrolidin-3-yl]-acetamide], the inhibition at 10 µM on human B1R was 15.7%; on B1R of the rat, 58.1%.
In the same order, the values of `COc1ccc2cc(S(=O)(=O)N3CCn4cccc4C3CC(=O)NC3CCc4cc(CN5CCCc6ccccc65)ccc4C3)ccc2c1` (stereo not drawn) [Example 105, 2-[2-[(6-Methoxy-naphthalen-2-yl)sulfonyl]-1,2,3,4-tetrahydro-pyrrolo[1,2-a]pyrazin-1-yl]-N-[6-(1,2,3,4-tetrahydro-quinolin-1-yl-methyl)-1,2,3,4-tetrahydro-naphthalen-2-yl]-acetamide] are 99.8% and 103%.
Regarding `Cc1ccc(S(=O)(=O)N2CCn3cccc3C2CC(=O)NC2CCc3cc(CN4CCCC4)ccc3C2)cc1Cl` (stereo not drawn) [Example 49, 2-[2-[(3-Chloro-4-methyl-phenyl)sulfonyl]-1,2,3,4-tetrahydro-pyrrolo[1,2-a]pyrazin-1-yl]-N-[6-(pyrrolidin-1-yl-methyl)-1,2,3,4-tetrahydro-naphthalen-2-yl]-acetamide], the inhibition at 10 µM on human B1R was found to be 99.9%; on B1R of the rat, 100%.
Regarding `Cc1ccc(S(=O)(=O)N2CCn3cccc3C2CC(=O)NC2CCCc3cc(CNC(C)(C)C)ccc32)cc1Cl` (stereo not drawn) [Example 70, N-[6-[(tert-Butylamino)-methyl]-1,2,3,4-tetrahydro-naphthalen-1-yl]-2-[2-[(3-chloro-4-methyl-phenyl)sulfonyl]-1,2,3,4-tetrahydro-pyrrolo[1,2-a]pyrazin-1-yl]-acetamide], the inhibition at 10 µM on human B1R is 99.9%; on B1R of the rat, 102%.
`COc1cc(C)c(S(=O)(=O)N2CCn3cccc3C2COCC(=O)N2CCC(CN3CCN(C)CC3)C2)c(C)c1` (stereo not drawn) [Example 37, 2-[[2-[(4-Methoxy-2,6-dimethyl-phenyl)sulfonyl]-1,2,3,4-tetrahydro-pyrrolo[1,2-a]pyrazin-1-yl]-methoxy]-1-[3-[(4-methyl-piperazin-1-yl)-methyl]-pyrrolidin-1-yl]-ethanone]: the inhibition at 10 µM amounted to 97.8% on human B1R and 104% at B1R of the rat.
Turning to `COc1ccc2cc(S(=O)(=O)N3CCn4cccc4C3CC(=O)NC3CCc4cc(CNCc5ccccc5)ccc4C3)ccc2c1` (stereo not drawn) [Example 101, N-[6-[(Benzylamino)-methyl]-1,2,3,4-tetrahydro-naphthalen-2-yl]-2-[2-[(6-methoxy-naphthalen-2-yl)sulfonyl]-1,2,3,4-tetrahydro-pyrrolo[1,2-a]pyrazin-1-yl]-acetamide], the inhibition at 10 µM at human B1R came to 99.9%; at B1R of the rat, 103%.
In the same order, the values of `CNCc1ccc2c(c1)CCCC2NC(=O)CC1c2cccn2CCN1S(=O)(=O)c1ccc(C)cc1` (stereo not drawn) [Example 133, N-[6-(Methylamino-methyl)-1,2,3,4-tetrahydro-naphthalen-1-yl]-2-[2-(p-tolylsulfonyl)-1,2,3,4-tetrahydro-pyrrolo[1,2-a]pyrazin-1-yl]-acetamide] are 99.4% and 104%.
